Assay results: PMC6934184, “Selective DNA-PKcs inhibition extends the therapeutic index of localized radiotherapy and chemotherapy” (The Journal of Clinical Investigation, 2019)

Target: T1, GSK3A (GSK3 alpha) (Homo sapiens, UniProt P49840)
T1 construct: purchased Thermo Fisher Scientific (Life Technologies) SelectScreen
Experiment: SelectScreen Z'LYTE
Type: biochemical
In short: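 NU5455 was profiled across the SelectScreen Broad panel of kinase activity and binding assays. Z'LYTE reactions such as CSF1R ran at apparent Km ATP, while the Adapta CAMK1 assay used ATP listed as 10. Values are given as percent.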

T1 sequence (P49840 whole entry): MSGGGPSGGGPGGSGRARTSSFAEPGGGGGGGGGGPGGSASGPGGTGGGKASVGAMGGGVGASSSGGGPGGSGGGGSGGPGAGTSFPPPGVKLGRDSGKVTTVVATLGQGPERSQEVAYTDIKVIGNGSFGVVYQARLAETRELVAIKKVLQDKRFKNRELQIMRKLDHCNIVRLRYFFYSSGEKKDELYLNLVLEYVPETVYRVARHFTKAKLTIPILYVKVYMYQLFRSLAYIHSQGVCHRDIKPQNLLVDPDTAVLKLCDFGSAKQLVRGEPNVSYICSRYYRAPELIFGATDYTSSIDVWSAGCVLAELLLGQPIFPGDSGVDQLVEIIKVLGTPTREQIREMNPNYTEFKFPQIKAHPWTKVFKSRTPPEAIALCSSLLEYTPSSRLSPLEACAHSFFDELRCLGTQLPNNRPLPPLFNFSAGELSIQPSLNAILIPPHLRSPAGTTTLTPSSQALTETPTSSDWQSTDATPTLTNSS

**Q.** CN(C(=O)CN1CCOCC1)c1ccc2sc3c(-c4cccc5c(=O)cc(N6CC7CCC(C6)O7)oc45)cccc3c2c1 [NU5455] was tested. Which inhibition at 1 µM did it give?
**A.** -5.5%
